Data on 72 molecules can be found in PubChem BioAssay AID179 (DTP/NCI, 2004).

Molecules are shown by their SMILES. Several values for one entry are separate records, joined by “and”; a condition that tells them apart may be missing. Equal entries are not always repeated. Activity calls are given as the source filed them.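 The calls were made as follows: active = compounds giving half or more protection of infected cells from virus-caused growth loss, again on retest; inactive = the rest.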 Where a SMILES comes first, the peptide text is derived from it. The star is where a group is joined. Trt = c1ccc(C(c2ccccc2)(c2ccccc2)*)cc1; OtBu = CC(C)(C)O*; X14 = CC(C)COC*

The test concerns CEM cells HIV-1 protection, formazan growth assay. Put plainly: NCI AIDS Antiviral Assay. To be noted: for IC50: measured here: growth of uninfected CEM cells. In a few lines: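 Category rules: moderately active means at least 50% protection on retest, and confirmed active means 100% protection reproducibly. The underlying data came from a formazan growth assay in HIV-1-infected CEM cells.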

Broadly, the EC50 is the midpoint of the concentration-response curve. Usually IC50 stands for the midpoint of a concentration-inhibition curve. High values mean a need for much substance, low ones inhibition by little substance. As for `CC(C)CCc1n[nH]c(=O)n1/N=C\c1ccccc1`, the EC50 was above 200 µM and the IC50 was found to be 66.1 µM.
As for `CCOc1cc2c(cc1O)/C(=N\O)C[C@@H]1[C@@H]2CC[C@]2(C)[C@@H](O)CC[C@@H]12`, the EC50 is above 200 µM and the IC50 amounted to 0.0631 µM.
`CCN1C[C@]2(C)CCC(OC)C34[C@@H]1[C@@]1(OCO[C@@]15C[C@H](OC)[C@@H]1C[C@]3(O)[C@@H]5C1OC(C)=O)[C@@H](OC(C)=O)[C@@H]42` (stereo partly drawn): the outcome was inactive.
Consider `O=C(Nc1ccc(/C=C\c2ccc(NC(=O)c3cc(S(=O)(=O)O)c4cccnc4c3O)cc2S(=O)(=O)O)c(S(=O)(=O)O)c1)c1cc(S(=O)(=O)O)c2cccnc2c1O`, for which the EC50 is above 100 µM and the IC50 is above 100 µM.
Regarding `CCOP(=O)(CCn1cc(C)c(=O)[nH]c1=O)OCC`, the EC50 is above 871 µM and the IC50 is above 871 µM.
With `C[S+](C)CC(=O)c1ccc2c(c1)Sc1ccccc1O2`, the EC50 was above 100 µM and the IC50 came out at 2.04 µM.
The matching figures for `CCOC(=O)CCCNC(=O)c1ccccc1SC(=O)CCCC[n+]1ccccc1`: above 2 µM and 0.912 µM.
For `Cc1cc(S(=O)(=O)Nc2n[nH]c(Nc3ccc4ccccc4c3)n2)c(S)cc1Cl`, the EC50 was above 200 µM and the IC50 turned out to be 49 µM.
The matching figures for `O=C1c2ccccc2-c2nnc(-c3ccccc3)cc21`: above 100 µM and 8.32 µM.
Take `CC(C)CCCC(C)[C@H]1CC[C@H]2[C@@H]3CC[C@H]4C[C@@H](CCC=C(c5cc(Cl)c(O)c(C(=O)O)c5)c5cc(Cl)c(O)c(C(=O)O)c5)CC[C@]4(C)[C@H]3CC[C@]12C` (stereo partly drawn) (tested in a mixture with another compound): the EC50 was above 100 µM and the IC50 was 40.7 µM.
As for `C=C[C@@]1(O)CCCC2=C(C(=O)OCC)CC[C@]21C`, the result was inactive.
In the case of `O=C(O)c1nn(-c2ccccc2-c2n[nH]c(=O)[nH]c2=O)c(=O)[nH]c1=O`, the EC50 was above 200 µM and the IC50 is above 200 µM.
For `O=c1oc2cccc(O)c2c(O)c1Cc1ccccc1`, the EC50 is above 200 µM and the IC50 is above 200 µM.
As to `O=C(CC(O)(C(F)(F)F)C(F)(F)F)c1ccc(Cl)cc1`, the EC50 was above 200 µM and the IC50 is above 200 µM.
As to `COc1ccc2c(c1)C1=C(CC2)C(=O)OC1=O`, the result was inactive.
As for `CC(=O)O[C@@H]1CC(C)C2CC2C2=C(C(O)OC2O)[C@@H]1C(C)CCC=C(C)C` (stereo partly drawn), the EC50 is above 69.2 µM and the IC50 was determined as 58.9 µM.
For `Cc1c2n(c3ccccc13)CC1C2N(C)OC1(C)C` (stereo not drawn) the same measures were above 263 µM and above 263 µM.
The matching figures for `O=C(OCCOCCO)c1ccccc1-c1c2cc(I)c(=O)c(I)c-2oc2c(I)c(O)c(I)cc12`: above 200 µM and 5.13 µM.
Take `O=C(COc1ccc(Cl)cc1)N1N=C(c2ccc([N+](=O)[O-])o2)CC1(O)c1ccccc1` (stereo not drawn): the EC50 was above 16.2 µM and the IC50 was 2.88 µM.
On to `NC(=O)N/N=C1\CC2C3CC4C2C4C13` (stereo not drawn), for which the EC50 is above 200 µM and the IC50 was above 200 µM.
Regarding `CC(C)SSC(=O)N1CCCC1C(=O)O` (stereo not drawn), the EC50 is above 200 µM and the concentration for half-maximal inhibition (IC50) is above 200 µM.
`COc1cc(-c2oc3c(OC)c(OC)cc(O)c3c(=O)c2OC)ccc1O`: the EC50 is above 100 µM; the IC50 is 12.6 µM and 3.55 µM.
`Nc1nc(=S)c2c(ncn2CCO)[nH]1`: the EC50 is above 324 µM and the IC50 was 126 µM.
Take `CCN(CC)CCN1CCN=c2c3cc(OC)ccc3n3cnc4ccc1c2c43`: the EC50 was above 2 µM and the IC50 was 0.0347 µM.
Regarding `CCC1C(c2ccccc2O)c2cc3c(cc2OC1N1CCOCC1)OCO3` (stereo not drawn), the EC50 was above 200 µM and the IC50 was determined as 22.4 µM.
As for `Cc1ccc(S(=O)(=O)n2cncc2CO)cc1`, the EC50 was above 200 µM and the IC50 is above 200 µM.
As for `CN(C)C1C(=O)C(C(=O)NCNCCCO)=C(O)C2(O)C(=O)C3=C(O)c4c(O)cccc4C(C)(O)C3CC12` (stereo not drawn), the EC50 was above 204 µM and the IC50 was above 100 µM.
As to `CN(N)c1nc(N)c(C#N)c(C#N)c1C#N`, the EC50 is above 100 µM and the IC50 was above 100 µM.
Turning to `CC1=C(C(=O)Nc2ccccc2C)C(c2ccc(Cl)c(Cl)c2)C(C(=O)Nc2ccccc2C)=C(C)N1`, the result was inactive.
Consider `N#Cc1ccc(Nc2cnc3ccc(N)cc3n2)cc1`, for which the EC50 is above 10.5 µM and the IC50 is above 10.5 µM.
Take `N#CC12C(=O)N3C(=NC(c4ccccc4)NC3c3ccccc3)C1(C#N)C(c1ccccc1)NC1=C2CCC1` (stereo not drawn): the EC50 was above 200 µM and the half-inhibitory concentration (IC50) is above 200 µM.
For the molecule `CC(C)(C)C(=O)C(Cc1ccccc1)C(=O)C(C)(C)C`, the outcome was inactive.
Still for that read-out and setting: the value for `N#CC(C(=O)C(=O)Nc1c(Cl)cccc1Cl)c1ccccc1` (stereo not drawn) was “inactive”; that for `COC(CNC(=O)CNC(=O)c1ccc(C(F)(F)F)cc1)OC` was “inactive”.
In the case of `C=C1C(=O)OC2CC(C)C3(O)C=C(C(C)=O)C4(OC3CC12)C(=O)OC1CC(C)C2(/C=C\C(C)=O)OC2CC14` (stereo not drawn), the EC50 was above 479 µM and the IC50 was 81.3 µM.
For the molecule `Cc1cc(C)c2c(c1)CSCc1cc(C)cc(C)c1-2`, the result was inactive.
For `CC1=NNC(=O)C1`, the EC50 was above 200 µM and the IC50 was 66.1 µM.
Turning to `CCCCCCCCCOC(=S)NC`, the result was inactive.
Same read-out and setting: the value for `Cc1nn(C(=O)c2ccncc2)c2c1C(c1cccc([N+](=O)[O-])c1)SC(N)=N2` (stereo not drawn) was “inactive”.
`CC1=C(c2ccccc2)C(c2ccccc2)=C(c2ccccc2)C2(c3ccccc3)C(=O)C(C)CN12` (stereo not drawn): the EC50 was above 5.75 µM and the IC50 is above 5.75 µM.
As for `N#Cc1c(-c2ccc([N+](=O)[O-])cc2)c(C#N)c(=O)n(NS(=O)(=O)c2ccccc2)c1S`, the EC50 is above 200 µM and the IC50 turned out to be 16.6 µM.
With `CCOC(=O)N1CCN(c2c(C)nc(C)[nH]c2=O)CC1`, the EC50 is above 200 µM and the IC50 is above 200 µM.
For `O=C(c1ccc(Cl)cc1)N1CC1`, the EC50 is above 200 µM and the IC50 was 81.3 µM.
For `O=C(C1=CCC2(CC1)OCCO2)N(Cc1ccccc1)c1ccccc1I` the same measures were above 200 µM and 32.4 µM.
For the molecule `CC(C)COCSCC(NC(=O)CNC(=O)C(Cc1ccccc1)NC(=O)CNC(=O)C(N)CSC(c1ccccc1)(c1ccccc1)c1ccccc1)C(=O)NC(Cc1ccccc1)C(=O)NCC(=O)OC(C)(C)C` (stereo not drawn) (H-C(Trt)GFGC(X14)FG-OtBu; configuration not given here), the EC50 was above 24 µM and the IC50 was above 24 µM.
As for `CC1(C(=O)O)CCC[C@@]2(C)C1CC[C@@]1(C)c3cocc3CCC21` (stereo partly drawn), the outcome was inactive.
As to `O=C1c2cc3c(cc2CC12Cc1cc4c(cc1C2=O)CCC4)CCCC3` (stereo not drawn), the EC50 was above 200 µM and the IC50 is above 200 µM.
Turning to `CCN1c2nc3ccccc3nc2N(CC)c2nc3ccccc3nc21`, the EC50 is above 200 µM and the IC50 was determined as 41.7 µM.
With `COc1c(C)c(-c2c(C)c(OC)c3c(c2OC)OCO3)c(OC)c2c1OCO2`, the EC50 was above 200 µM and the IC50 was 170 µM.
In the case of `O=C(O)c1ccc(C(c2c(O)c3ccccc3oc2=O)c2c(O)c3ccccc3oc2=O)cc1`, the EC50 was above 200 µM and the IC50 is 191 µM.
Consider `N#Cc1ccc(CSc2ncnc3nc[nH]c23)cc1`, for which the EC50 was above 200 µM and the concentration for half-maximal inhibition (IC50) was found to be 81.3 µM.
Regarding `Oc1c(C(O)N2CCOCC2)cc(C(O)N2CCOCC2)c(O)c1O` (stereo not drawn) (tested in a mixture with another compound), the EC50 was above 200 µM and the IC50 was 1.91 µM.
The matching figures for `CSCCCSC1CCCCCCCCCCC1=O` (stereo not drawn): above 200 µM and above 200 µM.
For `N#CC1(c2ccccc2)C(c2ccccc2)CC(O)(c2ccccc2)C(C(=O)c2ccccc2)C1c1ccccc1` (stereo not drawn) the same measures were above 100 µM and 15.1 µM.
`C=C(Br)CN(CC(=C)Br)C(C)=O`: the EC50 was above 200 µM and the half-maximal inhibitory concentration (IC50) was above 200 µM.
In the case of `Cc1oc(N)c(S(=O)(=O)c2ccc(Cl)cc2)c1C`, the EC50 was above 200 µM and the IC50 was determined as 34.7 µM.
Consider `CC(C)(C)/C(CC(=O)CCC(=O)Nc1ccc(Cl)cc1)=N\NC(N)=S`, for which the outcome was inactive.
Take `Nc1ncnc2c1ncn2C1C=CC(CO)CC1` (stereo not drawn): the EC50 was above 200 µM and the IC50 was above 200 µM.
As for `Cc1cc(Cl)ccc1NC(=O)/C(Cl)=C(/Cl)C(=O)O`, the outcome was inactive.
Consider `CC1C(O)Oc2cc3c(cc2C1c1ccccc1O)OCO3` (stereo not drawn), for which the EC50 is above 200 µM and the IC50 was determined as 35.5 µM.
For `CN(C)CCCOc1ccc(/C=C2/CCC/C(=C/c3ccc(OCCCN(C)C)cc3)C2=O)cc1` the same measures were above 15.1 µM and 1.05 µM.
For `COC(=O)C1C(=O)N(C)C(=O)N2CCCC12` (stereo not drawn) the same measures were above 200 µM and above 200 µM.
In the case of `CN1CCC(c2ccccc2)(c2ccccc2)C(O)C1` (stereo not drawn), the result was inactive.
Consider `CCOC(=O)c1cn2c(n1)sc1cc(OC)ccc12`, for which the EC50 was above 20 µM and the IC50 came to 1.7 µM.
Regarding `COc1ccc(CC2Cc3ccccc3CC(=O)N2)cc1OC` (stereo not drawn), the EC50 was above 200 µM and the IC50 amounted to 17.8 µM.
For `[N-]=[N+]=NC1C[C@H](n2cc(/C=C/Br)c(=O)[nH]c2=O)C[C@@H]1CO` (stereo partly drawn), the EC50 is above 363 µM and the IC50 was determined as 355 µM.
On to `CC1CC(=O)N2CCCNC2=C1C#N` (stereo not drawn), for which the EC50 is above 200 µM and the IC50 is above 200 µM.
Turning to `CC(C)(C)OC(=O)NCCCCC(N)NC(=O)c1ccccc1` (stereo not drawn), the EC50 was above 200 µM and the IC50 was above 200 µM.
Turning to `COC(=O)C12CCC(=O)N1CC(=O)c1c2[nH]c2ccccc12` (stereo not drawn), the outcome was inactive.
With `CP1(=S)CC[C@H]2C3=C(CC[C@@H]21)CC(=O)CC3` (stereo partly drawn), the result was inactive.
With `Cc1ccc(S(=O)(=O)C(C#N)c2nc3ccccc3nc2N2CCOCC2)cc1` (stereo not drawn), the EC50 is above 16.6 µM and the IC50 is above 16.6 µM.
`O=C(O)C1CCCCC1c1c2ccc(=O)cc-2oc2cc(O)ccc12` (stereo not drawn) showed an EC50 above 200 µM and an IC50 of 10.7 µM.
